Values quoted from earlier work, collected in patent US6391342B1, “Pharmaceutical formulation comprising a 2- [(2-pyridinyl) methyl] sulfinyl benzimidazole having anti-ulcer activity and a process for the preparation of such formulation” (A/S GEA Farmaceutisk Fabrik, priority 1998, dated 2002).
Like-named read-outs stand apart in the source and are kept apart here.

stability to acids (acids): sensible to acids
solubility (in alkaline solutions): very soluble
solubility (in water): only slightly soluble
SMILES: COc1ccc2[nH]c([S+]([O-])Cc3ncc(C)c(OC)c3C)nc2c1 (stereo not drawn) [omeprazole, 5-methoxy-2-[[(4-methoxy-3,5-dimethyl-2-pyridinyl)methyl]sulfinyl]-1H-benzimidazole]
